Measured values reported in ChEMBL document CHEMBL1201862, “PubChem BioAssay data set” (2004).
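Test compounds were applied to cells in 96-well plates for 48 hours at 5 doses. GI50 marks 50% less growth.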 Calls of active or inactive are those of the source. Rule as the data show it: active = GI50 up to about 1.1 µM and inactive = higher.

Legend:
Assay in all cases: NCI anticancer screen, dose series, 48 h
786-0 = tested on: 786-0
A498 = tested on: A498
A549 = tested on: A549
ACHN = tested on: ACHN
CAKI-1 = tested on: CAKI-1
CCRF-CEM = tested on: CCRF-CEM
COLO 205 = tested on: COLO 205
DMS-114 = tested on: DMS-114
DMS-273 = tested on: DMS-273
EKVX = tested on: EKVX
HCC 2998 = tested on: HCC 2998
HCT-116 = tested on: HCT-116
HCT-15 = tested on: HCT-15
HL-60 = tested on: HL-60
HOP-18 = tested on: HOP-18
HOP-62 = tested on: HOP-62
HOP-92 = tested on: HOP-92
HT-29 = tested on: HT-29
IGROV-1 = tested on: IGROV-1
K562 = tested on: K562
KM-20L2 = tested on: KM-20L2
KM12 = tested on: KM12
LOX IMVI = tested on: LOX IMVI
LXFL 529 = tested on: LXFL 529
M14 = tested on: M14
M19-MEL = tested on: M19-MEL
MOLT-4 = tested on: MOLT-4
Malme-3M = tested on: Malme-3M
NCI-H226 = tested on: NCI-H226
NCI-H23 = tested on: NCI-H23
NCI-H460 = tested on: NCI-H460
NCI-H522 = tested on: NCI-H522
OVCAR-3 = tested on: OVCAR-3
OVCAR-4 = tested on: OVCAR-4
OVCAR-5 = tested on: OVCAR-5
OVCAR-8 = tested on: OVCAR-8
RPMI-8226 = tested on: RPMI-8226
RXF 393 = tested on: RXF 393
SF-268 = tested on: SF-268
SF-295 = tested on: SF-295
SF-539 = tested on: SF-539
SK-MEL-28 = tested on: SK-MEL-28
SK-MEL-2 = tested on: SK-MEL-2
SK-MEL-5 = tested on: SK-MEL-5
SK-OV-3 = tested on: SK-OV-3
SN12C = tested on: SN12C
SNB-19 = tested on: SNB-19
SNB-75 = tested on: SNB-75
SNB-78 = tested on: SNB-78
SR = tested on: SR
SW-620 = tested on: SW-620
TK-10 = tested on: TK-10
U-251 = tested on: U-251
UACC-257 = tested on: UACC-257
UACC-62 = tested on: UACC-62
UO-31 = tested on: UO-31
XF498 = tested on: XF498

Compound: N#CC1(c2nc3ccccc3o2)C(=O)C(=O)N(C2C3CC4CC(C3)CC2C4)C(=O)C1=O (configuration not stated)
- GI50 (786-0): > 100 µM (inactive)
- GI50 (A498): > 100 µM (inactive)
- GI50 (A549): > 100 µM (inactive)
- GI50 (ACHN): > 100 µM (inactive)
- GI50 (CAKI-1): > 100 µM (inactive)
- GI50 (CCRF-CEM): 64.9 µM (inactive)
- GI50 (COLO 205): > 100 µM (inactive)
- GI50 (DMS-114): > 100 µM (inactive)
- GI50 (DMS-273): > 100 µM (inactive)
- GI50 (EKVX): > 100 µM (inactive)
- GI50 (HCC 2998): > 100 µM (inactive)
- GI50 (HCT-116): > 100 µM (inactive)
- GI50 (HCT-15): > 100 µM
- GI50 (HL-60): 42 µM (inactive)
- GI50 (HOP-18): > 100 µM (inactive)
- GI50 (HOP-62): > 100 µM (inactive)
- GI50 (HOP-92): 84.9 µM (inactive)
- GI50 (HT-29): > 100 µM (inactive)
- GI50 (IGROV-1): > 100 µM (inactive)
- GI50 (K562): > 100 µM (inactive)
- GI50 (KM-20L2): > 100 µM (inactive)
- GI50 (KM12): > 100 µM (inactive)
- GI50 (LOX IMVI): > 100 µM (inactive)
- GI50 (LXFL 529): > 100 µM (inactive)
- GI50 (M14): > 100 µM (inactive)
- GI50 (M19-MEL): > 100 µM (inactive)
- GI50 (MOLT-4): > 100 µM (inactive)
- GI50 (Malme-3M): > 100 µM (inactive)
- GI50 (NCI-H226): > 100 µM (inactive)
- GI50 (NCI-H23): > 100 µM (inactive)
- GI50 (NCI-H460): > 100 µM (inactive)
- GI50 (NCI-H522): > 100 µM (inactive)
- GI50 (OVCAR-3): > 100 µM (inactive)
- GI50 (OVCAR-4): > 100 µM (inactive)
- GI50 (OVCAR-5): > 100 µM (inactive)
- GI50 (OVCAR-8): > 100 µM (inactive)
- GI50 (RPMI-8226): 26.4 µM (inactive)
- GI50 (RXF 393): > 100 µM (inactive)
- GI50 (SF-268): > 100 µM (inactive)
- GI50 (SF-295): > 100 µM (inactive)
- GI50 (SF-539): > 100 µM (inactive)
- GI50 (SK-MEL-28): > 100 µM (inactive)
- GI50 (SK-MEL-2): > 100 µM (inactive)
- GI50 (SK-MEL-5): > 100 µM (inactive)
- GI50 (SK-OV-3): > 100 µM (inactive)
- GI50 (SN12C): > 100 µM (inactive)
- GI50 (SNB-19): > 100 µM (inactive)
- GI50 (SNB-75): > 100 µM (inactive)
- GI50 (SNB-78): > 100 µM (inactive)
- GI50 (SR): > 100 µM (inactive)
- GI50 (SW-620): > 100 µM (inactive)
- GI50 (TK-10): > 100 µM (inactive)
- GI50 (U-251): > 100 µM (inactive)
- GI50 (UACC-257): > 100 µM (inactive)
- GI50 (UACC-62): > 100 µM (inactive)
- GI50 (UO-31): > 100 µM (inactive)
- GI50 (XF498): > 100 µM (inactive)
